Source: ChEMBL document CHEMBL1201862, “PubChem BioAssay data set” (2004)
Activity calls are given as the source filed them.

Tests used:
Large T antigen = Large T antigen (Simian virus 40, UniProt P03070); type: functional, Betapolyomavirus macacae;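 note: Confirmatory-stage PubChem screen for compounds that inhibit SV40 T antigen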
[1] = molecular target: DNA dC->dU-editing enzyme APOBEC-3A (Homo sapiens, UniProt P31941); experiment: APOBEC3A DNA deaminase inhibitors, dose response, biochemical (AID 504722); type: functional
Chain of DNA dC->dU-editing enzyme APOBEC-3A (P31941 whole entry): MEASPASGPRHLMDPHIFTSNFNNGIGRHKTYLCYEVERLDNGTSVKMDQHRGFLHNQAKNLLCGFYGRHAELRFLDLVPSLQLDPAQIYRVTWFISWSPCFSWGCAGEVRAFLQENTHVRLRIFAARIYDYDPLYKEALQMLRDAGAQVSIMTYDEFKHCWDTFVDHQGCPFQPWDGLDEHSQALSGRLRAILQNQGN

[2] = molecular target: Glucose-6-phosphate 1-dehydrogenase (Homo sapiens, UniProt P11413); experiment: human G6PD enzyme inhibitors, dose response, selectivity assay for P. falciparum G6PD inhibitor project, biochemical, fluorescence (AID 504792); type: functional
Chain of Glucose-6-phosphate 1-dehydrogenase (P11413 whole entry): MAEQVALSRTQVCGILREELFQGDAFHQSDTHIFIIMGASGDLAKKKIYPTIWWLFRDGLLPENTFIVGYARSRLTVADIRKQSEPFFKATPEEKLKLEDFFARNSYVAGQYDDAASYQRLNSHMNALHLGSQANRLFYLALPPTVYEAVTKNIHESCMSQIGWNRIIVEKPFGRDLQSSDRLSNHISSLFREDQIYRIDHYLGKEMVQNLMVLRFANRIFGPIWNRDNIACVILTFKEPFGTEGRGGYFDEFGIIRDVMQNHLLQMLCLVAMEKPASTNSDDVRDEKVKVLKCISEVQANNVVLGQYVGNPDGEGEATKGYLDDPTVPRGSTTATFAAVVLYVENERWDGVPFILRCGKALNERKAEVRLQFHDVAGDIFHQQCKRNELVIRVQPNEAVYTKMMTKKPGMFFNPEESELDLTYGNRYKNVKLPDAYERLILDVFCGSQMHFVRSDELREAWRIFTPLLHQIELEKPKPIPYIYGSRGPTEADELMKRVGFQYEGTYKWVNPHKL

[3] = molecular target: DNA dC->dU-editing enzyme APOBEC-3G (Homo sapiens, UniProt Q9HC16); experiment: Dose Response confirmation of small molecule APOBEC3G DNA Deaminase Inhibitors via a fluorescence-based single-stranded DNA deaminase assay. [Related pubchem assays (depositor defined):AID493012, AID493028]; type: functional
Chain of DNA dC->dU-editing enzyme APOBEC-3G (Q9HC16 whole entry): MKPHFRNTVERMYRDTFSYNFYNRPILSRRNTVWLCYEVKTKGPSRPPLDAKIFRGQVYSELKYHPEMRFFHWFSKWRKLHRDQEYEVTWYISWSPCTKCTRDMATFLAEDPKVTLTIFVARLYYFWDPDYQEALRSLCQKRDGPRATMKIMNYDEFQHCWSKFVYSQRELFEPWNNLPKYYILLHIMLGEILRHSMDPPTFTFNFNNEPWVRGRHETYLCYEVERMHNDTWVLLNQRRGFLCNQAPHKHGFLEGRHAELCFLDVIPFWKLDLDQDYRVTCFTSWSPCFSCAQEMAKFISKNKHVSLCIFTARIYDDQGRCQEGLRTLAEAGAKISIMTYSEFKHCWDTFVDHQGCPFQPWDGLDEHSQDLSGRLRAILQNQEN

Hexokinase = molecular target: T1, Hexokinase (Trypanosoma brucei, UniProt Q38C41); experiment: Confirmation assay for inhibitors of Trypanosoma brucei hexokinase 1-Analogue-first series. [Related pubchem assays (depositor defined):AID1430, AID1632, AID2516, AID2560, AID2579, AID2600, AID449725, AID492951]; type: functional
T1 sequence (Q38C41 whole entry): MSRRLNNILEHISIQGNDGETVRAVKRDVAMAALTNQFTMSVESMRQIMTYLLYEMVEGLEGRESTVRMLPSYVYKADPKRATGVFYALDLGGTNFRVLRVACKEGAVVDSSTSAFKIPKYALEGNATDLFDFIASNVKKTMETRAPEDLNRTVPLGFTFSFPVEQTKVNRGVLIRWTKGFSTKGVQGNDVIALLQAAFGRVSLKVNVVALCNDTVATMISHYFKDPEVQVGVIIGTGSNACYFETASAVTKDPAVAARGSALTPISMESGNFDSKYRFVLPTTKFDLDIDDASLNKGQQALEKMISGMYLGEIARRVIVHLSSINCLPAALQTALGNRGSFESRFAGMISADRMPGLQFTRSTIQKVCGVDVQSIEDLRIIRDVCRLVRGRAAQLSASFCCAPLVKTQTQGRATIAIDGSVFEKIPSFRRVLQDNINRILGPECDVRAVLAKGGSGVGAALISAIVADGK

[4] = HeLa cell cytotoxicity, dose response, cytotoxicity control for MgcRacGAP inhibitor project (AID 624300); type: functional
[5] = molecular target: T2, Rac GTPase-activating protein 1 (Homo sapiens, UniProt Q9H0H5); experiment: MgcRacGAP GTPase-activating activity inhibitors, confirmation, biochemical, ADP Hunter fluorescence, primary and confirmatory (AID 624330); type: functional
T2 sequence (Q9H0H5 whole entry): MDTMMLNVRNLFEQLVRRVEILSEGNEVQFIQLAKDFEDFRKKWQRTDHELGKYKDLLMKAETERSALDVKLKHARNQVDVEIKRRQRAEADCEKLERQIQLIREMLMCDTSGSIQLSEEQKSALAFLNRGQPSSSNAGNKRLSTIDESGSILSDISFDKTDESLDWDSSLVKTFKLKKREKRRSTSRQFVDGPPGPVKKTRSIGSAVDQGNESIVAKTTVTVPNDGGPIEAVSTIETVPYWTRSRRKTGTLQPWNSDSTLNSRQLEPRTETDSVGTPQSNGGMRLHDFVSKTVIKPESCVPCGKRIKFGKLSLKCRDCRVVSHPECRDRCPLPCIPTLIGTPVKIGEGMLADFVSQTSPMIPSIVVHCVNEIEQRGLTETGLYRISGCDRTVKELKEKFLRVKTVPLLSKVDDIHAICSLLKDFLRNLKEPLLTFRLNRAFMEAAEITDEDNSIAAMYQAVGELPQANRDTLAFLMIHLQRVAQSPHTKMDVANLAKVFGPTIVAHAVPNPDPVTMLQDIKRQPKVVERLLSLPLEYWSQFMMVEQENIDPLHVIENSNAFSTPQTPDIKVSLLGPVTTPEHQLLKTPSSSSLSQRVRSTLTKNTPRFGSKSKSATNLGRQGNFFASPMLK

[6] = molecular target: Luciferin 4-monooxygenase (Photinus pyralis, UniProt P08659); experiment: firefly luciferase enzyme inhibitors, dose response, biochemical, luminescence (AID 1891)
Chain of Luciferin 4-monooxygenase (P08659 whole entry): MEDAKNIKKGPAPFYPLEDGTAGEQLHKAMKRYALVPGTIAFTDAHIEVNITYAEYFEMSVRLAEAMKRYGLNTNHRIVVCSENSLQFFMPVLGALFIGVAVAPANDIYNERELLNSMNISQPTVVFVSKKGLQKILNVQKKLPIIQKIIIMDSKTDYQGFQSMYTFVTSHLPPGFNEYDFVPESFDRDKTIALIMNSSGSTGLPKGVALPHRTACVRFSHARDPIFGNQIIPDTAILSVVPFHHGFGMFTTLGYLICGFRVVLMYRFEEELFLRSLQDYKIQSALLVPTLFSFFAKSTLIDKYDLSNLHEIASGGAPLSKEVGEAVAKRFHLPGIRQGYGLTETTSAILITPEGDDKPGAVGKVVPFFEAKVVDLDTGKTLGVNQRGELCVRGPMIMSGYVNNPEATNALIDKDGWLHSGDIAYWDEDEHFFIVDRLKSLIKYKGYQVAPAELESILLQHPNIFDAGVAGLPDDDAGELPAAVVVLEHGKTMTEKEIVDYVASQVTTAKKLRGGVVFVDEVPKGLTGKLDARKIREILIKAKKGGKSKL

Estrogen receptor = molecular target: T3, Estrogen receptor (Homo sapiens, UniProt P03372);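 note: potency for inhibiting coactivator peptide recruitment to the receptor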
T3 sequence (P03372 whole entry): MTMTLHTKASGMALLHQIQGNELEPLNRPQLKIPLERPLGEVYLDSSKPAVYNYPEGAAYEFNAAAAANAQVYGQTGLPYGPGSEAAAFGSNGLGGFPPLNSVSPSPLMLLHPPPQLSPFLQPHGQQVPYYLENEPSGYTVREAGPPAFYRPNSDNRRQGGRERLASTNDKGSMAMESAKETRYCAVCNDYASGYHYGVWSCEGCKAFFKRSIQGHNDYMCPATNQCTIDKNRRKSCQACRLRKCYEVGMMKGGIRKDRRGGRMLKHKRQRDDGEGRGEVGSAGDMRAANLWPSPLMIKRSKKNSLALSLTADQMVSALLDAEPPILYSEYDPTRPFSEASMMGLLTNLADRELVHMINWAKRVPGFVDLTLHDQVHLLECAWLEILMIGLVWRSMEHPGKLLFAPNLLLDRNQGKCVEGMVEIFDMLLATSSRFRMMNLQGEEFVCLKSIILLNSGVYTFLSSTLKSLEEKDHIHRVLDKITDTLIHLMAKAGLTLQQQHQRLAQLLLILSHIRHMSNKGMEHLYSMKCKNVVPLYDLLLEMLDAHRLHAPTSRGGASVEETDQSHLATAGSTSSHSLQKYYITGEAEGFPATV

[7] = Luminescence Cell-Based Dose Confirmation HTS to Identify Inhibitors of Platelet Dense Granule Release. [Related pubchem assays: 1663 (Primary HTS), 1678 (Summary of Project)]; type: functional
[8] = molecular target: G-protein coupled receptor 55 (Homo sapiens, UniProt Q9Y2T6); experiment: GPR55 agonists via beta-arrestin recruitment, primary screen, imaging, U2OS cells, beta-arrestin-GFP redistribution (AID 1961); type: functional
Chain of G-protein coupled receptor 55 (Q9Y2T6 whole entry): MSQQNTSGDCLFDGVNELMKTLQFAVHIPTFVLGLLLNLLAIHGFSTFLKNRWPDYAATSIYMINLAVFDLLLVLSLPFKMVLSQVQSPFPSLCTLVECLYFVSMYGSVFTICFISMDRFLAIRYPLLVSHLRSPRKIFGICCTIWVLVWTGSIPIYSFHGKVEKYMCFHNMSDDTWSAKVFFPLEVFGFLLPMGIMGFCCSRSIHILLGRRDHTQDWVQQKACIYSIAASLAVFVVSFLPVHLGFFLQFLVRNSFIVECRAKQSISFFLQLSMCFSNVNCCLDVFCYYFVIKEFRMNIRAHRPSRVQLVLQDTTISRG

Bcl-2-related protein A1 = molecular target: T4, Bcl-2-related protein A1 (Mus musculus, UniProt Q07440); type: functional;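 note: confirmatory dose–response counterscreen on Bfl-1, used to check hits from a UBC13 polyubiquitin inhibitor campaign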
T4 sequence (Q07440 whole entry): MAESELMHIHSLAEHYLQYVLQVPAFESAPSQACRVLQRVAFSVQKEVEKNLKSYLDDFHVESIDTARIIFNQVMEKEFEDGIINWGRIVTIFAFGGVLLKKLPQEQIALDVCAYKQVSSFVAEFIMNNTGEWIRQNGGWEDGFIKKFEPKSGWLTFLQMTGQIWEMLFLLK

[9] = molecular target: T5, Ubiquitin-conjugating enzyme E2 N (Homo sapiens, UniProt P61088); type: functional
T5 sequence (P61088 whole entry): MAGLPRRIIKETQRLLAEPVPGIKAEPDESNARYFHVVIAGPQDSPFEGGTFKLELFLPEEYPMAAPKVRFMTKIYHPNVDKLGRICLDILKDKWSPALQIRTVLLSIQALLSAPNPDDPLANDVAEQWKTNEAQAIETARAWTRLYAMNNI

[10] = molecular target: T5, Ubiquitin-conjugating enzyme E2 N; type: functional; remark: listed apart in the source
[11] = molecular target: E3 ubiquitin-protein ligase XIAP (Homo sapiens, UniProt P98170); experiment: Counter Screen using XIAP-Bir3 for Chemical Antagonists of Bir1/2 domains of IAP-family anti-apoptotic proteins. [Related pubchem assays (depositor defined):AID1018, AID1449, AID1514, AID1638, AID1749, AID1750, AID488957, AID488963]
Chain of E3 ubiquitin-protein ligase XIAP (P98170 whole entry): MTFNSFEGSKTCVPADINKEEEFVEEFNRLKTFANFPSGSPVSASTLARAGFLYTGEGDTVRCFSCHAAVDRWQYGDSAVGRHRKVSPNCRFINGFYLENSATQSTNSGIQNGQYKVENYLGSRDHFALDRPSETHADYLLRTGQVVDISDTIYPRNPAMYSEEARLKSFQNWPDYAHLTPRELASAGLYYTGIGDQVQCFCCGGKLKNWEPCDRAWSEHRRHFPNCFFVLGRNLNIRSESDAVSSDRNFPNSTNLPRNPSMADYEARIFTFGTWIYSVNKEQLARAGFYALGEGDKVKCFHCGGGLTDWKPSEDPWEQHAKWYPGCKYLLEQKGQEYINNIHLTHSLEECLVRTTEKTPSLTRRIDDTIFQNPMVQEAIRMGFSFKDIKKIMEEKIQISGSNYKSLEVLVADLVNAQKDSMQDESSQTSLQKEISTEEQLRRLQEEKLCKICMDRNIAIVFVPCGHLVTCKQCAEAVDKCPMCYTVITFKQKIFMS

Chain of Large T antigen (P03070 whole entry): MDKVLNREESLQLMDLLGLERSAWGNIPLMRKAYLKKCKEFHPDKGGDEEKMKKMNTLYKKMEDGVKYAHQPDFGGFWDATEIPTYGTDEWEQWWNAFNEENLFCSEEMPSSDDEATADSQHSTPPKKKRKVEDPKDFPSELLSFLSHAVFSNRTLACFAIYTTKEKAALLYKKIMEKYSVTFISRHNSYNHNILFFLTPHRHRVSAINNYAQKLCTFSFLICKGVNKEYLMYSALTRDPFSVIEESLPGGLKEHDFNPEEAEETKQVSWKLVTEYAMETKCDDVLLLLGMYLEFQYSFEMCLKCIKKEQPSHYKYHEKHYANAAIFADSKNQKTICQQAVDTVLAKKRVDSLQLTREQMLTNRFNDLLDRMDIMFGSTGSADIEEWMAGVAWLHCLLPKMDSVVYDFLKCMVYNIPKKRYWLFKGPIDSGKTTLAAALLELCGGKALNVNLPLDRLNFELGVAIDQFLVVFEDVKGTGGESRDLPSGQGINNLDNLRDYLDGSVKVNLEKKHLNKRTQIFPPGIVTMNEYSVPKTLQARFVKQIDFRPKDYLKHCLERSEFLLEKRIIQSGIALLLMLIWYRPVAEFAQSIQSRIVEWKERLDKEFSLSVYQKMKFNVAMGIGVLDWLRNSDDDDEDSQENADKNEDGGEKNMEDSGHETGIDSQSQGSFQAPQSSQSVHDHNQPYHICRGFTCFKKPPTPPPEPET

For `C/N=c1/nc(-c2ccccc2)n(-c2ccccc2)s1`, which IC50 (Large T antigen) is on record?
The IC50 was 29.4 µM (active).

What about the IC50 [1] of the same compound?
The IC50 was > 100 µM (inactive).

And the IC50 [2]?
The IC50 was 10.1 µM (active).

What about the IC50 [3] of the same compound?
Its IC50 is 15.9 µM (active).

Which IC50 (Hexokinase) does the source give for `O=c1c2ccccc2sn1-c1ccc(Cl)cc1Cl` here?
Its IC50 is 5.03 µM (active).

What about the IC50 [2] of the same compound?
Its IC50 is 17 µM (active).

What about the CC50 [4] of the same compound?
The CC50 was 74.7 µM (active).

And the IC50 [5]?
The IC50 was 31.8 µM (active).

Which EC50 [6] does the source give for `O=C(NCc1ccco1)c1nn2c(C(F)(F)F)cc(-c3cccs3)nc2c1Br` here?
Its EC50 is > 112 µM (not active).

And the IC50 (Estrogen receptor)?
The IC50 was 36.9 µM (not active).

And the EC50 [7]?
Its EC50 is > 112 µM (not active).

And the EC50 [8]?
Its EC50 is > 32 µM (inactive).

With `Sc1nnc(-c2ccccn2)n1/N=C/c1cccc(Cl)c1` as the compound, how does the IC50 [1] read?
The IC50 was > 100 µM (inactive).

What about the IC50 [3] of the same compound?
The IC50 was 2.81 µM (active).

Which IC50 (Bcl-2-related protein A1) does the source give for `CN(C)CCCN(C(=O)c1ccc(S(=O)(=O)N2CCCCC2)cc1)c1nc2cc3c(cc2s1)OCO3` here?
Its IC50 is > 20 µM (inactive).

And the IC50 [9]?
The IC50 was 12.7 µM (active).

What about the IC50 [10] of the same compound?
The IC50 was > 20 µM (inactive).

Which IC50 (Hexokinase) does the source give for `O=c1c2ccccc2sn1-c1cccc(F)c1` here?
The IC50 was 1.82 µM (active).

For `CCOc1ccc(NC(=O)Cn2c(=O)n(CCCC(=O)NC3CCN(Cc4ccccc4)CC3)c(=O)c3ccccc32)cc1`, which IC50 (Bcl-2-related protein A1) is on record?
Its IC50 is > 20 µM (inactive).

And the IC50 [9]?
Its IC50 is 5.27 µM (active).

And the IC50 [10]?
Its IC50 is 5.19 µM (active).

Which IC50 (Hexokinase) does the source give for `COc1ccc(C(=O)Nc2cc(C(F)(F)F)ccc2C(=O)O)cc1` here?
The IC50 was 17 µM (active).

With `O=c1[nH]c(-c2ccc(F)cc2)nc2c1sc(=S)n2-c1ccccc1` as the compound, how does the IC50 [11] read?
Its IC50 is > 20 µM (inactive).

Which results are given for `CCOC(=O)CSc1nnc(S)s1`?
IC50 [1]: > 100 µM (inactive); IC50 [3]: 15 µM (active)
